How the values were obtained:
Assay in all cases: radio-TLC assay of yeast membrane fraction (alcohols + aldehydes)
Format in all cases: biochemical
AdFAR1 = target: T1, AdFAR1 (Anser anser, UniProt G9IBF1); conditions: pH 6.5, 37 C
T1 construct: gene FAR1; full-length cDNA from uropygial gland in pYES-DEST52 (primer keeps stop codon); S. cerevisiae BY4741 dga1 lro1 membranes
T1 sequence (G9IBF1 1-515): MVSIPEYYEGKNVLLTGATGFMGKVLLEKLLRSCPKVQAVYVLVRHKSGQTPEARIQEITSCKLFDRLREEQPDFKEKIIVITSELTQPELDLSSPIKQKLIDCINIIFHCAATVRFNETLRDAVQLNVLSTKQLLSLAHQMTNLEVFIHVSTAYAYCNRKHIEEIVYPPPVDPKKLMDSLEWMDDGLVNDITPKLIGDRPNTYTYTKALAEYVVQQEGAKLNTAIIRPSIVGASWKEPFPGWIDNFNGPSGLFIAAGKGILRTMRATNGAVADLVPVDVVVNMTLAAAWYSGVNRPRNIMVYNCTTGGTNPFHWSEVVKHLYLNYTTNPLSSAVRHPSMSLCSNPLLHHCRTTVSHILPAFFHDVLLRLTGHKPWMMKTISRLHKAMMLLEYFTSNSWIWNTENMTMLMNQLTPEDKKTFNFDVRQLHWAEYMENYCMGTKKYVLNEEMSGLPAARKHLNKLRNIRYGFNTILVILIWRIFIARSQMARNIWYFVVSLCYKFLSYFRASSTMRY

TaFAR1 = target: T2, TaFAR1 (Tyto alba, UniProt G9IBF2); conditions: labelled 16:0-CoA as co-substrate, NADPH varied; pH 6.5, 37 C
T2 construct: gene FAR1; full-length cDNA from uropygial gland in pYES-DEST52 (primer keeps stop codon); expressed in Saccharomyces cerevisiae BY4741 dga1 lro1; total membrane fraction
T2 sequence (G9IBF2 1-515): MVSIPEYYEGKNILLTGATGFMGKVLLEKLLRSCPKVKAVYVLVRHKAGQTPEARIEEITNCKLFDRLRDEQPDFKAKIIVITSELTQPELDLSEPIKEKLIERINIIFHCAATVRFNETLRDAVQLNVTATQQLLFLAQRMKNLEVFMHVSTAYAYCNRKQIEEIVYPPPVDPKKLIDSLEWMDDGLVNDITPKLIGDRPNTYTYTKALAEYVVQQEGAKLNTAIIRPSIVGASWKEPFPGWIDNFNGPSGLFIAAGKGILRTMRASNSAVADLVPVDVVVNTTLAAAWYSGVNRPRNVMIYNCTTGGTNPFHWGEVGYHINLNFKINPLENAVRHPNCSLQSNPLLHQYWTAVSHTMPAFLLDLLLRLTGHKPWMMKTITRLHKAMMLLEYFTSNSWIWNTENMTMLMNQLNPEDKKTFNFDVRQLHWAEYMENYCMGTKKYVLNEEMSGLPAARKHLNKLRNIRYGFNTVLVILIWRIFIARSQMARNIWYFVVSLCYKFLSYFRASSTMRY

TaFAR2 = target: T3, TaFAR2 (Tyto alba, UniProt G9IBF3); conditions: labelled 18:0-CoA as co-substrate; pH 5.5, 37 C
T3 construct: gene FAR2; full-length cDNA from uropygial gland in pYES-DEST52 (primer keeps stop codon); expressed in Saccharomyces cerevisiae BY4741 dga1 lro1; total membrane fraction
T3 sequence (G9IBF3 1-515): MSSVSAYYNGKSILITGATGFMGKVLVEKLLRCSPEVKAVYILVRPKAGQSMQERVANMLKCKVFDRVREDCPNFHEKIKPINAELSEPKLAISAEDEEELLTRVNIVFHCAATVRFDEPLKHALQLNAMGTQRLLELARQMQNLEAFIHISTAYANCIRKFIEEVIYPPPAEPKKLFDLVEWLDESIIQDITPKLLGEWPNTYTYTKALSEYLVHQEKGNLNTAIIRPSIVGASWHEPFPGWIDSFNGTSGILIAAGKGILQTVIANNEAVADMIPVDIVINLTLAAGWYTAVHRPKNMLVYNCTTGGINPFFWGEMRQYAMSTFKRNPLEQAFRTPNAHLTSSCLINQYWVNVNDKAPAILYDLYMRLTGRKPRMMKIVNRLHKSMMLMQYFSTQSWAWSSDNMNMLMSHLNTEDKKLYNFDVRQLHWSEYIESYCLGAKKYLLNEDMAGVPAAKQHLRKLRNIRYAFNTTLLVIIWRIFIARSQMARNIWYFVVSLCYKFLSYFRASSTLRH

GgFAR1 = target: T4, GgFAR1 (Gallus gallus, UniProt Q5ZM72); conditions: labelled acyl-CoA as co-substrate; pH 6.5, 37 C
T4 construct: gene FAR1; uropygial gland cDNA in pYES-DEST52, S. cerevisiae BY4741 dga1 lro1 membranes
T4 sequence (Q5ZM72 1-515): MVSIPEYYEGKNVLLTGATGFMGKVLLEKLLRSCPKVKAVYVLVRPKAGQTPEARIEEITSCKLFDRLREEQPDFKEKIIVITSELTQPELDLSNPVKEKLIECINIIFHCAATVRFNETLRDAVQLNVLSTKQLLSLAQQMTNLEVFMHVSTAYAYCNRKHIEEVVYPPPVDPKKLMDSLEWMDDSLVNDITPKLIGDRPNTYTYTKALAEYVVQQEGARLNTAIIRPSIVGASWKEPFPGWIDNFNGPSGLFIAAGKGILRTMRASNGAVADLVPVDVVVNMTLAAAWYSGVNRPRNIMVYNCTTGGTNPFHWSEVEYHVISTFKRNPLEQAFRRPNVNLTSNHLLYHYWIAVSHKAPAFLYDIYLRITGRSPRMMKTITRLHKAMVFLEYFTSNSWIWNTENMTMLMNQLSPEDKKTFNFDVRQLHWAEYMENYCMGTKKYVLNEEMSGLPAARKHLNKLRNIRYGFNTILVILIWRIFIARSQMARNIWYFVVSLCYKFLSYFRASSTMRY

GgFAR2 = target: T5, GgFAR2 (Gallus gallus, UniProt A0A3Q2TWV7, V159M/K457R); conditions: labelled acyl-CoA as co-substrate; pH 5.5, 37 C
T5 construct: gene FAR2; uropygial gland cDNA in pYES-DEST52, S. cerevisiae BY4741 dga1 lro1 membranes
T5 sequence (A0A3Q2TWV7 1-515 V159M/K457R): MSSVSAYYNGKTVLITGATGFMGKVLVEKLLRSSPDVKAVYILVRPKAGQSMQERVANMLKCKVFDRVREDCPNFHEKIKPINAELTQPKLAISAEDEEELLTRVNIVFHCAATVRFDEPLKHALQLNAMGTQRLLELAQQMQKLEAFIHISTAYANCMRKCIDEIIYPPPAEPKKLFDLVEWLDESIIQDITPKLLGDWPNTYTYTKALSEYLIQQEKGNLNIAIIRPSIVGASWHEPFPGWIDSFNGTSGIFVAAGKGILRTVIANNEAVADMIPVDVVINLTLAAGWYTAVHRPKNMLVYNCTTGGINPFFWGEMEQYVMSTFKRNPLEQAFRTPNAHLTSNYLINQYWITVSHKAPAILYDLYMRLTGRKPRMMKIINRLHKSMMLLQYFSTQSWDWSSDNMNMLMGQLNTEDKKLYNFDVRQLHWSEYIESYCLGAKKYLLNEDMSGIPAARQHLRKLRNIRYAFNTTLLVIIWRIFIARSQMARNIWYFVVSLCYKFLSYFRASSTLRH

CCCCCCCCCCCCCCCC(=O)SCCNC(=O)CCNC(=O)[C@H](O)C(C)(C)COP(=O)(O)OP(=O)(O)OC[C@H]1O[C@@H](n2cnc3c(N)ncnc32)[C@H](O)[C@@H]1OP(=O)(O)O [16:0-CoA]
radio-TLC assay of yeast membrane fraction (alcohols + aldehydes) (AdFAR1; 20 uM acyl-CoA, 5 mM NADPH, 1 mM MgCl2, 16 uM BSA, labelled compound): only AdFAR1 of goose was almost equally active with all substrates

NC(=O)C1=CN([C@@H]2O[C@H](COP(=O)(O)OP(=O)(O)OC[C@H]3O[C@@H](n4cnc5c(N)ncnc54)[C@H](OP(=O)(O)O)[C@@H]3O)[C@@H](O)[C@H]2O)C=CC1 [NADPH]
radio-TLC assay of yeast membrane fraction (alcohols + aldehydes) (TaFAR1): All FAR enzymes required NADPH as electron donor
radio-TLC assay of yeast membrane fraction (alcohols + aldehydes) (AdFAR1; labelled acyl-CoA as co-substrate): All FAR enzymes required NADPH as electron donor
radio-TLC assay of yeast membrane fraction (alcohols + aldehydes) (TaFAR2): All FAR enzymes required NADPH as electron donor
radio-TLC assay of yeast membrane fraction (alcohols + aldehydes) (GgFAR1): All FAR enzymes required NADPH as electron donor
radio-TLC assay of yeast membrane fraction (alcohols + aldehydes) (GgFAR2): All FAR enzymes required NADPH as electron donor
